Measurements reported in ChEMBL document CHEMBL1201862, “PubChem BioAssay data set” (2004).
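Five compound concentrations were applied to cells in 96-well plates for 48 hours; endpoints were derived by simple linear interpolation of the resulting dose-response curve. GI50: concentration for 50% inhibition of growth.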 The source made the active and inactive calls. Rule as the data show it: active = GI50 up to about 1.1 µM and inactive = higher.

Key:
Test in all cases: NCI-60 cell line screen, 48 h
COLO 205 = system: COLO 205
SNB-78 = system: SNB-78
SF-295 = system: SF-295
ACHN = system: ACHN
DMS-114 = system: DMS-114
SNB-19 = system: SNB-19
SR = system: SR
KM-20L2 = system: KM-20L2
SK-MEL-2 = system: SK-MEL-2
UACC-257 = system: UACC-257
SF-539 = system: SF-539
M19-MEL = system: M19-MEL
HCT-116 = system: HCT-116
KM12 = system: KM12
K562 = system: K562
Malme-3M = system: Malme-3M
HOP-92 = system: HOP-92
XF498 = system: XF498
A498 = system: A498
HT-29 = system: HT-29
CAKI-1 = system: CAKI-1
786-0 = system: 786-0
UO-31 = system: UO-31
HOP-18 = system: HOP-18
OVCAR-8 = system: OVCAR-8
RXF 631 = system: RXF 631
SNB-75 = system: SNB-75
A549 = system: A549
LOX IMVI = system: LOX IMVI
IGROV-1 = system: IGROV-1
DMS-273 = system: DMS-273
HOP-62 = system: HOP-62
RPMI-8226 = system: RPMI-8226
NCI-H226 = system: NCI-H226
NCI-H460 = system: NCI-H460
NCI-H23 = system: NCI-H23
HCT-15 = system: HCT-15
CCRF-CEM = system: CCRF-CEM
SW-620 = system: SW-620
SK-MEL-5 = system: SK-MEL-5
U-251 = system: U-251
HCC 2998 = system: HCC 2998
SF-268 = system: SF-268
UACC-62 = system: UACC-62
HL-60 = system: HL-60
SK-OV-3 = system: SK-OV-3
OVCAR-5 = system: OVCAR-5
TK-10 = system: TK-10
SK-MEL-28 = system: SK-MEL-28
SN12C = system: SN12C
OVCAR-3 = system: OVCAR-3
NCI-H522 = system: NCI-H522
LXFL 529 = system: LXFL 529
MOLT-4 = system: MOLT-4
M14 = system: M14
RXF 393 = system: RXF 393
EKVX = system: EKVX
OVCAR-4 = system: OVCAR-4

With `CCC/C(=N/NC(=O)C(N)=O)C(CC)C(=O)CCC(=O)N(Cc1ccccc1)Cc1ccccc1` (stereo unspecified) the GI50 (COLO 205) was > 100 µM (inactive), the GI50 (SNB-78) was > 100 µM (inactive) and the GI50 (SF-295) was > 100 µM (inactive). For the same compound, the GI50 (ACHN) was > 100 µM (inactive), the GI50 (DMS-114) was > 100 µM (inactive) and the GI50 (SNB-19) was > 100 µM (inactive). The GI50 (SR) was > 100 µM (inactive), the GI50 (KM-20L2) was > 100 µM (inactive) and the GI50 (SK-MEL-2) was > 100 µM (inactive). For the same compound, the GI50 (UACC-257) was > 100 µM (inactive), the GI50 (SF-539) was > 100 µM (inactive) and the GI50 (M19-MEL) was > 100 µM (inactive). For the same compound, the GI50 (HCT-116) was > 100 µM (inactive), the GI50 (KM12) was > 100 µM (inactive) and the GI50 (K562) was > 100 µM (inactive). For the same compound, the GI50 (Malme-3M) was > 100 µM (inactive), the GI50 (HOP-92) was > 100 µM (inactive) and the GI50 (XF498) was > 100 µM (inactive). The GI50 (A498) was > 100 µM (inactive), the GI50 (HT-29) was > 100 µM (inactive) and the GI50 (CAKI-1) was > 100 µM (inactive). The GI50 (786-0) was > 100 µM (inactive), the GI50 (UO-31) was > 100 µM (inactive) and the GI50 (HOP-18) was > 100 µM (inactive). The GI50 (OVCAR-8) was > 100 µM (inactive), the GI50 (RXF 631) was > 100 µM (inactive) and the GI50 (SNB-75) was > 100 µM (inactive). The GI50 (A549) was > 100 µM (inactive), the GI50 (LOX IMVI) was > 100 µM (inactive) and the GI50 (IGROV-1) was > 100 µM (inactive). The GI50 (DMS-273) was > 100 µM (inactive), the GI50 (HOP-62) was > 100 µM (inactive) and the GI50 (RPMI-8226) was > 100 µM (inactive). The GI50 (NCI-H226) was > 100 µM (inactive), the GI50 (NCI-H460) was > 100 µM (inactive) and the GI50 (NCI-H23) was > 100 µM (inactive). For the same compound, the GI50 (HCT-15) was greater than 100 µM, the GI50 (CCRF-CEM) was > 100 µM (inactive) and the GI50 (SW-620) was > 100 µM (inactive). The GI50 (SK-MEL-5) was > 100 µM (inactive), the GI50 (U-251) was > 100 µM (inactive) and the GI50 (HCC 2998) was > 100 µM (inactive). For the same compound, the GI50 (SF-268) was > 100 µM (inactive), the GI50 (UACC-62) was > 100 µM (inactive) and the GI50 (HL-60) was > 100 µM (inactive). The GI50 (SK-OV-3) was > 100 µM (inactive), the GI50 (OVCAR-5) was > 100 µM (inactive) and the GI50 (TK-10) was > 100 µM (inactive). For the same compound, the GI50 (SK-MEL-28) was > 100 µM (inactive), the GI50 (SN12C) was > 100 µM (inactive) and the GI50 (OVCAR-3) was > 100 µM (inactive). The GI50 (NCI-H522) was > 100 µM (inactive), the GI50 (LXFL 529) was > 100 µM (inactive) and the GI50 (MOLT-4) was > 100 µM (inactive). The GI50 (M14) was > 100 µM (inactive), the GI50 (RXF 393) was > 100 µM (inactive) and the GI50 (EKVX) was > 100 µM (inactive).
In the case of `C=CCN(N=O)C(=O)N(CCCCC(NC(C)=O)C(=O)NCc1ccccc1)Cc1ccccc1` (stereo unspecified), the GI50 (COLO 205) is reported as 23.8 µM (inactive), the GI50 (SF-295) is reported as 31 µM (inactive) and the GI50 (ACHN) is reported as 42.9 µM (inactive). For the same compound, the GI50 (DMS-114) was 27.7 µM (inactive), the GI50 (SNB-19) was 51.5 µM (inactive) and the GI50 (KM-20L2) was 18.9 µM (inactive). The GI50 (SK-MEL-2) was 37.1 µM (inactive), the GI50 (UACC-257) was 36.1 µM (inactive) and the GI50 (SF-539) was 38.1 µM (inactive). For the same compound, the GI50 (M19-MEL) was 35.2 µM (inactive), the GI50 (KM12) was 31.6 µM (inactive) and the GI50 (K562) was 26.9 µM (inactive). The GI50 (Malme-3M) was 20.2 µM (inactive), the GI50 (HOP-92) was 13.1 µM (inactive) and the GI50 (XF498) was 36.1 µM (inactive). The GI50 (A498) was 42.9 µM (inactive), the GI50 (HT-29) was 19.5 µM (inactive) and the GI50 (CAKI-1) was 28.6 µM (inactive). The GI50 (786-0) was 28.6 µM (inactive), the GI50 (UO-31) was 29.6 µM (inactive) and the GI50 (HOP-18) was 23 µM (inactive). The GI50 (OVCAR-8) was 35.2 µM (inactive), the GI50 (RXF 631) was 32.5 µM (inactive) and the GI50 (SNB-75) was 38.4 µM (inactive). The GI50 (A549) was 38.5 µM (inactive), the GI50 (LOX IMVI) was 21.7 µM (inactive) and the GI50 (IGROV-1) was > 100 µM (inactive). The GI50 (DMS-273) was 41.1 µM (inactive), the GI50 (HOP-62) was 57.9 µM (inactive) and the GI50 (RPMI-8226) was 16.1 µM (inactive). For the same compound, the GI50 (NCI-H226) was 25.4 µM (inactive), the GI50 (NCI-H460) was 39.2 µM (inactive) and the GI50 (NCI-H23) was 46.5 µM (inactive). For the same compound, the GI50 (HCT-15) was 39.9 µM, the GI50 (CCRF-CEM) was 28.2 µM (inactive) and the GI50 (SW-620) was 33.8 µM (inactive). For the same compound, the GI50 (SK-MEL-5) was 15.5 µM (inactive), the GI50 (U-251) was 42.5 µM (inactive) and the GI50 (SF-268) was 41.9 µM (inactive). The GI50 (UACC-62) was 34.6 µM (inactive), the GI50 (HL-60) was 19.8 µM (inactive) and the GI50 (SK-OV-3) was > 100 µM (inactive). For the same compound, the GI50 (OVCAR-5) was > 100 µM (inactive), the GI50 (OVCAR-4) was 25.9 µM (inactive) and the GI50 (TK-10) was 35.1 µM (inactive). For the same compound, the GI50 (SK-MEL-28) was 44.1 µM (inactive), the GI50 (SN12C) was 41.5 µM (inactive) and the GI50 (OVCAR-3) was 30.3 µM (inactive). For the same compound, the GI50 (NCI-H522) was 15.1 µM (inactive), the GI50 (LXFL 529) was 31.1 µM (inactive) and the GI50 (MOLT-4) was 13.8 µM (inactive). The GI50 (M14) was 22.6 µM (inactive), the GI50 (RXF 393) was 21.7 µM (inactive) and the GI50 (EKVX) was 38.1 µM (inactive).
